“And” between values parts separate entries of the source, which are not always exact repeats. Identical values can stand only once.
These compounds were tested on L1210 (assay: Tumor cell selectivity determined as maximal percent increase in life span (ILSmax) at LD10 dosage level in L1210 cells).
Assay type: functional, Mus musculus

Row | SMILES | ILSmax
1 | COc1ccc2nc3cc(N)ccc3c(Nc3ccc(NS(C)(=O)=O)cc3)c2c1 | 25%
2 | O=C(O)CCCCc1ccc(NC(=O)Nc2ccc(N=c3c4ccccc4[nH]c4ccccc34)cc2)cc1 | 80%
3 | OC[C@@H]1O[C@H](Oc2ccc(Nc3c4ccccc4nc4ccccc34)cc2)[C@@H](O)[C@H](O)[C@H]1O | 60%
4 | COc1cc(NS(C)(=O)=O)ccc1N=c1c2ccccc2[nH]c2ccc(C(C)(C)C)cc12 | 25%
5 | O=C(O)Cc1ccccc1Nc1c2ccccc2nc2ccccc12 | 25%
6 | O=C(O)CCCCCc1ccc(NC(=O)Nc2ccc(Nc3c4ccccc4nc4ccccc34)cc2)cc1 | 60%
7 | COc1cc(NS(C)(=O)=O)ccc1Nc1c2ccccc2nc2c(C(=O)NCCO)cccc12 | 100%
8 | Cc1cccc2c(Nc3ccc(NS(=O)(=O)CCCCN)cc3)c3cccc(C)c3nc12 | 72%
9 | CC(=O)Nc1ccccc1Nc1c2ccccc2nc2ccccc12 | 25%
10 | NC(Cc1ccc(NC(=O)Nc2ccc(N=c3c4ccccc4[nH]c4cc([N+](=O)[O-])ccc34)cc2)cc1)C(=O)O (stereo unspecified) | 80%
11 | COc1cc(NS(C)(=O)=O)ccc1Nc1c2ccccc2nc2cc(C(F)(F)F)c(N)cc12 | 90%
12 | CC(=O)N(c1ccc(Nc2c3ccc([N+](=O)[O-])cc3nc3c(C)cccc23)cc1)S(C)(=O)=O | 150%
13 | Nc1ccc2c(Nc3ccc(C(=O)O)cc3)c3ccccc3nc2c1 | 25%
14 | CCCCS(=O)(=O)Nc1ccc(Nc2c3ccccc3nc3cc(NC(C)=O)ccc23)cc1 | 83%
15 | CCCCCCCCS(=O)(=O)Nc1ccc(Nc2c3ccccc3nc3ccccc23)c(OC)c1 | 40%
16 | O=C(Nc1ccc(N=c2c3ccccc3[nH]c3ccccc23)cc1)Nc1ccc(C(=O)O)cc1 | 85%
17 | CN(c1ccc(Nc2c3ccccc3nc3ccccc23)cc1)S(C)(=O)=O | 65%
18 | COc1cc(NS(C)(=O)=O)ccc1Nc1c2ccccc2nc2c(Br)cccc12 | 100%
19 | CS(=O)(=O)Nc1ccc(Nc2c3ccccc3nc3ccccc23)cc1Cl | 25%

Row | SMILES | ILSmax
20 | CCS(=O)(=O)Nc1ccc(Nc2c3cccc(C)c3nc3c(C)cccc23)c(OC)c1 | 70%
21 | N=C(N)NCCCS(=O)(=O)Nc1ccc(Nc2c3ccccc3nc3cc([N+](=O)[O-])ccc23)cc1 | 200%
22 | COc1ccc2c(Nc3ccc(NS(C)(=O)=O)cc3)c3ccc(OC)cc3nc2c1 | 56%
23 | COc1cc(NS(C)(=O)=O)ccc1Nc1c2ccccc2nc2c(C(=O)NCC(O)CO)cccc12 (stereo unspecified) | 83%
24 | COc1cc(NS(=O)(=O)CCCCN)ccc1Nc1c2ccccc2nc2c(C(N)=O)cccc12 | 25%
25 | CCN(CC)c1ccc(Nc2c3ccccc3nc3ccccc23)cc1 | 25%
26 | Cc1cccc2nc3ccccc3c(Nc3ccc(NS(C)(=O)=O)cc3)c12 | 25%
27 | COc1ccc2nc3cc(NC(C)=O)ccc3c(Nc3ccc(NS(C)(=O)=O)cc3)c2c1 | 25%
28 | Nc1ccc(S(=O)(=O)Nc2ccc(Nc3c4ccccc4nc4ccccc34)cc2)cc1 | 100%
29 | NCCCS(=O)(=O)c1ccc(Nc2c3ccccc3nc3cc([N+](=O)[O-])ccc23)cc1 | 95%
30 | CS(=O)(=O)Nc1ccc(Nc2c3ccccc3nc3cc(I)ccc23)cc1 | 160%
31 | CCCCCCS(=O)(=O)Nc1ccc(Nc2c3ccccc3nc3cc(S(C)(=O)=O)ccc23)c(OC)c1 | 25%
32 | COc1cc(/C=C/C(=O)O)ccc1Nc1c2ccccc2nc2ccccc12 | 27%
33 | COc1cc(NS(C)(=O)=O)ccc1Nc1c2ccccc2nc2c(C)c(C)ccc12 | 118%
34 | COc1cc(NS(C)(=O)=O)ccc1Nc1c2ccccc2nc2cc([N+](=O)[O-])ccc12 | 76%
35 | CNc1ccc2c(Nc3ccc(NS(C)(=O)=O)cc3)c3cccc(C)c3nc2c1C | 70%
36 | CCCCNc1ccc(Nc2c3ccccc3nc3ccccc23)cc1 | 25%
37 | COc1cc(N)ccc1Nc1c2ccccc2nc2ccccc12 | 25% and 66%
38 | CNc1ccc2c(Nc3ccc(OCCCC(=O)O)cc3)c3ccccc3nc2c1 | 25%

Row | SMILES | ILSmax
39 | Nc1ccc(S(=O)(=O)Nc2ccc(Nc3c4ccccc4nc4cc(Cl)ccc34)cc2)cc1 | 50%
40 | CS(=O)(=O)Nc1ccc(Nc2c3ccccc3nc3ccccc23)c(Cl)c1 | 25%
41 | Cc1ccc2c(Nc3ccc(NS(C)(=O)=O)cc3)c3ccc(N)cc3nc2c1C | 110%
42 | CC(=O)Nc1ccc2c(Nc3ccc(NS(C)(=O)=O)cc3)c3ccc([N+](=O)[O-])cc3nc2c1 | 141%
43 | CCc1ccccc1Nc1c2ccccc2nc2ccccc12 | 25%
44 | O=C(O)COc1ccc(Nc2c3ccccc3nc3ccccc23)cc1 | 25%
45 | CS(=O)(=O)Nc1ccc(Nc2c3ccccc3nc3cc(NC(=O)/C=C/c4ccccc4)ccc23)cc1 | 25%
46 | COc1cc(NS(C)(=O)=O)ccc1Nc1c2cccc(C)c2nc2c(C)c(C)ccc12 | 120%
47 | CC(Oc1ccc(Nc2c3ccccc3nc3ccccc23)cc1)C(=O)O (stereo unspecified) | 25%
48 | Cc1cccc2c(Nc3ccc(NS(=O)(=O)c4ccc(N)cc4)cc3)c3ccccc3nc12 | 55%
49 | CN1CCN(c2ccc(Nc3c4ccccc4nc4cc([N+](=O)[O-])ccc34)cc2)CC1 | 25%
50 | CC(C)CC(=O)Nc1ccc(Nc2c3ccccc3nc3ccccc23)cc1 | 105%
51 | Cc1cc(N)ccc1N=c1c2ccccc2[nH]c2ccccc12 | 76%
52 | CNc1ccc2c(Nc3ccc(NS(C)(=O)=O)cc3OC)c3ccccc3nc2c1 | 83%
53 | CCCCCCS(=O)(=O)Nc1ccc(Nc2c3ccccc3nc3cc(NC(C)=O)ccc23)cc1 | 42%
54 | CC(=O)Nc1ccc2c(Nc3ccc(NS(C)(=O)=O)cc3)c3cccc(C)c3nc2c1C | 60%
55 | CC(=O)Nc1ccc2c(Nc3ccc(NS(C)(=O)=O)cc3)c3ccccc3nc2c1 | 60%
56 | CCCNC(=O)c1ccc(Nc2c3ccccc3nc3ccccc23)cc1 | 25%

Reference: ChEMBL document CHEMBL1122107, “Structure-antitumor activity relationships of 9-anilinoacridines using pattern recognition” (1982)
